Some test systems named below: SF-539 CNS; SK-OV-3 ovarian; SNB-19 CNS; M19-MEL melanoma; HOP-18 NSCLC; UACC-257 melanoma; LXFL 529 NSCLC; HOP-92 NSCLC; HS 578T breast; PC-3 prostate.
Assay in all cases: inhibition of tumour cell growth, NCI panel, 48 h

Drawing on PubChem BioAssay (NCI), this text covers TGI and GI50 for 13 compounds.

“And” between values parts separate entries of the source, which are not always exact repeats. Equal entries are not always repeated.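 Tested at 5 concentrations; 48 h exposure; 96-well plates; endpoints linearly interpolated, else capped at highest concentration. The concentration for 50% growth inhibition is given as GI50. The concentration for full growth arrest is given as TGI.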

With `CN1CC(=O)N2Cc3ccccc3-n3cccc3C2C1` (configuration not stated), the TGI was above 100 µM with SF-539 CNS; above 100 µM in the assay with SK-OV-3 ovarian; above 100 µM with SNB-19 CNS; above 100 µM with M19-MEL melanoma; 91.7 µM in the assay on HOP-18 NSCLC; above 100 µM in the assay with UACC-257 melanoma. The TGI in the assay with LXFL 529 NSCLC was above 100 µM.

Regarding `CCCCCCCCCCCCCC(=O)OCC(C[As](=O)(O)O)OC(=O)CCCCCCCCCCCCC` (configuration not stated), the TGI with SF-539 CNS, in the assay with SK-OV-3 ovarian, in the assay with SNB-19 CNS, with HOP-92 NSCLC, in the assay with HOP-18 NSCLC and with UACC-257 melanoma was above 100 µM in each case. The TGI with LXFL 529 NSCLC was above 100 µM.

Regarding `COC(=O)C[C@](O)(CCCC(C)(C)O)C(=O)O[C@@H]1C(OC)=C[C@]23CCCN2CCc2cc4c(cc2[C@H]13)OCO4`, the GI50 is 0.0195 µM with SF-539 CNS; 0.0284 µM with SK-OV-3 ovarian; 0.0333 µM in the assay with HS 578T breast; 0.0214 µM in the assay with SNB-19 CNS; 0.0224 µM in the assay on HOP-92 NSCLC; 0.0288 µM in the assay on PC-3 prostate. Moreover, the GI50 in the assay on UACC-257 melanoma was 0.205 µM and 0.0232 µM. The TGI is 0.264 µM and 0.0539 µM in the assay on SF-539 CNS; 1.82 µM and 0.395 µM with SK-OV-3 ovarian; 1.29 µM and 1.39 µM with SNB-19 CNS; 0.633 µM and 0.156 µM with HOP-92 NSCLC; 0.0866 µM in the assay with M19-MEL melanoma; 0.418 µM with HOP-18 NSCLC. In addition, in the assay on UACC-257 melanoma, the TGI is 0.839 µM and 0.0881 µM.

On to `CC(C)(C)NNC(=O)CCn1[nH]c(=O)c(Cl)c(Cl)c1=O`, for which the TGI with SF-539 CNS, in the assay with SK-OV-3 ovarian, in the assay on SNB-19 CNS, with M19-MEL melanoma, with HOP-18 NSCLC and in the assay on UACC-257 melanoma was above 100 µM throughout. In the assay on LXFL 529 NSCLC, this compound gave a TGI above 100 µM.

On to `CC(C)C(CCl)NC(=O)c1cccc(C(=O)N[C@H](CCl)C(C)C)n1` (stereo in doubt), for which the TGI in the assay on SF-539 CNS, in the assay on SK-OV-3 ovarian, in the assay on SNB-19 CNS, with HOP-92 NSCLC, in the assay on M19-MEL melanoma and with LXFL 529 NSCLC was above 100 µM in each case.

On to `CCC12CCCN(Cc3ccccc3)C1c1c(n(C)c3ccccc13)CC2` (configuration not stated), for which the TGI with SF-539 CNS, with SK-OV-3 ovarian, in the assay on SNB-19 CNS, with HOP-92 NSCLC, in the assay with M19-MEL melanoma and with UACC-257 melanoma was above 253 µM in each case. Also, the TGI in the assay on LXFL 529 NSCLC is above 253 µM.

As for `Cc1c2n(c(=O)[nH]c1=O)C1OC(CO)C(O2)C1O` (configuration not stated), the TGI in the assay on SF-539 CNS, in the assay with SK-OV-3 ovarian, in the assay on SNB-19 CNS, with HOP-92 NSCLC, in the assay on M19-MEL melanoma and in the assay on UACC-257 melanoma was above 100 µM throughout. Besides, in the assay with LXFL 529 NSCLC, the TGI was above 100 µM.

In the case of `O=C1CCC(Cl)=CC2CCCN12` (configuration not stated), the TGI in the assay with SF-539 CNS, with SK-OV-3 ovarian, with SNB-19 CNS, in the assay with HOP-92 NSCLC, with M19-MEL melanoma and with UACC-257 melanoma was above 100 µM in each case. The same compound came in with a TGI in the assay with LXFL 529 NSCLC above 100 µM.

For the compound `O=C(Nc1ccc(Br)cc1F)c1cc(F)ccc1O`, the GI50 in the assay on SF-539 CNS is 0.42 µM; in the assay on SK-OV-3 ovarian it was 0.405 µM; in the assay with HS 578T breast, 0.405 µM; in the assay with SNB-19 CNS, 0.419 µM; in the assay on HOP-92 NSCLC, 0.192 µM; in the assay on PC-3 prostate it was 1.15 µM. In the assay with UACC-257 melanoma, the GI50 was 0.466 µM. For the same compound, the TGI is 4.2 µM in the assay with SF-539 CNS; 2.55 µM in the assay with SK-OV-3 ovarian; 4.39 µM in the assay with HS 578T breast; above 100 µM with SNB-19 CNS; 0.566 µM with HOP-92 NSCLC; 7.24 µM in the assay on PC-3 prostate. The TGI in the assay on UACC-257 melanoma turned out to be 4 µM.

As for `Cc1ccc(SC2c3ccc(C)cc3Oc3nc(N)c(C#N)c(N)c32)cc1` (configuration not stated), the GI50 with SF-539 CNS was 1.8 µM; in the assay on SK-OV-3 ovarian, 10.1 µM; in the assay with HS 578T breast it was 2.4 µM; with SNB-19 CNS it was 1.86 µM; with HOP-92 NSCLC it was 1.45 µM; in the assay on PC-3 prostate, 1.85 µM. Further, the GI50 in the assay on UACC-257 melanoma was 1.8 µM. For the same compound, the TGI in the assay on SF-539 CNS turned out to be 3.82 µM; with SK-OV-3 ovarian, 21.7 µM; in the assay with HS 578T breast, 7.64 µM; in the assay on SNB-19 CNS, 3.71 µM; in the assay with HOP-92 NSCLC, 3.23 µM; in the assay with PC-3 prostate, 3.74 µM. Moreover, the TGI in the assay on UACC-257 melanoma is 3.22 µM.

On to `N#Cc1c(N)nc(N2CCOCC2)c(C#N)c1-c1ccncc1`, for which the GI50 with SF-539 CNS was above 100 µM; with SK-OV-3 ovarian, 37 µM; in the assay on HS 578T breast, 38.3 µM; in the assay with SNB-19 CNS, above 100 µM; in the assay with HOP-92 NSCLC it was 31.7 µM; in the assay with PC-3 prostate, 32 µM. The GI50 with UACC-257 melanoma is 46.6 µM. Moreover, the TGI in the assay on SF-539 CNS, in the assay with SK-OV-3 ovarian, in the assay with HS 578T breast, with SNB-19 CNS, with HOP-92 NSCLC and with PC-3 prostate was above 100 µM each time. The same compound showed a TGI in the assay on UACC-257 melanoma above 100 µM.

As for `Cn1c(I)c(C#CCO[Si](C)(C)C(C)(C)C)c(=O)[nH]c1=O`, the GI50 in the assay with SF-539 CNS was 16.9 µM; in the assay on SK-OV-3 ovarian, above 100 µM; with HS 578T breast, 20.1 µM; in the assay with SNB-19 CNS, above 100 µM; with HOP-92 NSCLC, 2.14 µM; in the assay with PC-3 prostate it was 17 µM. In the assay on UACC-257 melanoma, the GI50 was 12.9 µM. Further, the TGI in the assay on SF-539 CNS is 30.9 µM; in the assay with SK-OV-3 ovarian, above 100 µM; in the assay with HS 578T breast it was 43.4 µM; in the assay with SNB-19 CNS it was above 100 µM; in the assay with HOP-92 NSCLC, 4.67 µM; in the assay on PC-3 prostate, 32.7 µM. The compound further came in with a TGI in the assay on UACC-257 melanoma of 27.3 µM.

Consider `COC(=O)c1ccc2c(c1)nc(NC(=O)c1ccccc1)n2CCCc1ccccc1`, for which the GI50 with SF-539 CNS is 3.8 µM; in the assay on SK-OV-3 ovarian, 7.63 µM; in the assay on HS 578T breast, 30.2 µM; with SNB-19 CNS, 4.25 µM; in the assay with HOP-92 NSCLC, 6 µM; in the assay on PC-3 prostate, 4.07 µM. Further, the GI50 in the assay on UACC-257 melanoma is 6.85 µM. Moreover, the TGI with SF-539 CNS, in the assay on SK-OV-3 ovarian, in the assay with HS 578T breast, in the assay with SNB-19 CNS, in the assay with HOP-92 NSCLC and with PC-3 prostate was above 100 µM in each case. Further, in the assay with UACC-257 melanoma, the TGI is above 100 µM.
